# A melting point compilation (Tetko et al.; mined from patent text by program, amines drawn as free bases though some values may be those of a salt)
row,melting point [°C],Structure (SMILES)
1,230 to 233,CC(C)C(=O)Nc1c(Cl)cccc1C(=O)Nc1ccc(OC(F)(F)F)cc1
2,258 to 261,CC(=O)n1c2ccc(O)cc2c2c3c(c(-c4ccccc4Cl)cc21)C(=O)NC3=O
3,173 to 174,CCOP(=O)(Cc1ccc(NC(=O)/C=C/c2cnoc2-c2ccccc2)cc1)OCC
4,200,CC(C)c1cc(O)cc2nc(-c3ccc(O)cc3)oc12
5,228 to 230,CCNC(=O)COC1CCN(Cc2cnc3cc(NC(=O)c4ccc(-c5ccc(F)cc5)cc4)ccc3c2)CC1
6,32.2 to 33,CCCCCCc1ccc(C=Nc2ccc(C#N)cc2)cc1
7,186 to 189,O=C(Cn1c(-c2ccc3c(c2)OCO3)nc2ccccc21)c1ccccc1
8,248 to 249,Cc1cc2nc(C(=O)NC(Cc3ccc(OCc4ccccc4)cc3)C(=O)O)cn2cc1-c1ccc(Cl)cc1 (centres undefined)
9,179 to 181,Cc1ccc(Cn2cccc2C(=O)CC(=O)C(=O)O)cc1
10,237 to 239,COCc1c(-c2ccc(O)cc2)oc2ccccc2c1=O
11,249 to 251,Cc1cc(-c2ccc(S(N)(=O)=O)cc2)n(-c2ccc(S(C)=O)cc2)c1 (centres undefined)
12,215,CCOC(=O)C1=CC(C(=O)c2cc(Br)ccc2O)=CN2CCc3c([nH]c4ccccc34)C12C(=O)OCC (centres undefined)
13,83 to 85,CN(C)c1ccc(C(=O)CCCC2CCN(Cc3ccccc3)CC2)cc1
14,249 to 252,C[C@]1(COc2ccc(-c3nc(-c4ccc(Cl)cc4)co3)cc2)Cn2cc([N+](=O)[O-])nc2O1
15,158 to 160,C[C@H](NC(=O)CCn1cc(C2=C(c3cn(C)c4ccccc34)C(=O)NC2=O)c2ccccc21)C(=O)NCC(=O)N[C@@H](CCCCN)C(N)=O
16,88 to 89,CCOC(=O)COc1ccc(-c2noc3ccccc23)c(Cl)c1Cl
17,120 to 122,CC(C)(C)OC(=O)N1CCC(c2nc(-c3ccc(-c4ccccc4)cc3)c[nH]2)CC1
18,95 to 96,COC(=O)c1nc(-c2ccc(C)c(OC)c2F)cc(N)c1Cl
19,246 to 250,COc1cccc(Cc2ccc3[nH]c4cnn(C)c4c(=O)c3c2)c1
20,111 to 113,COc1ccc(Cc2oc3c(c2C)C(=O)C(C)=C(C)C3=O)cc1
21,51 to 53,CC(C)(O)c1ccc(CNC(=O)c2cccnc2Oc2cccc(S(C)(=O)=O)c2)cc1

row,melting point [°C],Structure (SMILES)
1,171 to 173,Cc1oc(-c2ccccc2)nc1CCOc1ccc(C[C@@H](C(=O)O)N2CCN(S(=O)(=O)c3ccccc3[N+](=O)[O-])CC2)cc1
2,99.8 to 105,CCn1c(C)c(C(c2ccco2)S(=O)(=O)c2ccc(C)cc2)c2ccccc21 (centres undefined)
3,159 to 160,Cc1cc(Cl)ccc1OCc1ccccc1C(O)c1nccn1C (centres undefined)
4,234 to 236,Cc1cc2oc(=O)c(NC(=O)Nc3ccc(Cl)cc3)c(-c3ccccc3C)c2cc1C
5,224 to 225,CS(=O)(=O)CC(=O)c1[nH]c2cc(Br)c(Cl)cc2c1-c1ccccc1
6,210 to 214,NC(=O)c1cccc(C2(O)C3CCC2CN(Cc2ccccc2)C3)c1 (centres undefined)
7,141 to 143,NC(=O)n1ccc(-c2ccc(Oc3ccc(F)cc3)cc2)n1
8,115 to 117,CCCCc1cc(-c2ccc(S(N)(=O)=O)cc2)n(-c2ccc(OC)cc2)c1
9,74 to 77,Cc1cccc(NC(=O)C2=C(O)c3ccccc3N(c3ccccc3)C2)n1
10,156,Cn1cnc(COc2ccc(-c3cc(-c4nc(C(C)(C)C)[nH]c4-c4ccccn4)ccn3)cc2)c1
11,30,CC(C)c1ccc(NCc2ccc(Br)cc2)cc1
12,120 to 122,CN(C)CCOc1ccc(Nc2nccc(-c3ccncc3)n2)cc1
13,195 to 196,CCOC(=O)c1cc2cc(NS(=O)(=O)CCCCl)ccc2[nH]1
14,245 to 249,CCOC(=O)c1cccc2c(=O)cc(-c3ccc(OCc4ccc5ccccc5c4)cc3)oc12
15,250 to 252,CN(C)C(=O)c1nc(-c2cccnc2)nc2c1[nH]c(=O)n2-c1ccccc1
16,64 to 65,O=C1c2ccccc2CCc2ccc(Cl)cc21
17,175 to 177,COc1ccc2c(c1)C(=O)N(c1ccc3cnn(C)c3c1)C2
18,181 to 182,CCOC(=O)c1ccc(NC(=O)c2ccc3c(c2)OCC(C)(C)CO3)cc1
19,185 to 188,O=C(Nc1ccc(-n2nc(C(F)(F)F)cc2C(F)(F)F)cc1)c1c(F)cc(Cl)cc1Cl
20,162 to 164,Cc1cccc(C)c1NS(=O)(=O)c1cc(S(=O)(=O)Nc2c(C)cccc2C)c2cc(O)ccc2c1
21,176 to 179,CS(=O)(=O)Nc1ccc(F)c(C(O)CN)c1 (centres undefined)

# Second part, the compound before the results:
row,Structure (SMILES),melting point [°C]
1,CN1CC(=O)Nc2ccsc2C1=O,270 to 272
2,COc1cc2cc(C3=CCN(C)CC3)oc2cc1OC,73 to 75
3,CCOC(=O)C1=C(C)NC(C)=C(C(=O)OCC)C1c1ccccc1/C=C/C(=O)OC1CCCCCC1,192 to 194
4,N#Cc1ccc(C(=O)OC2CCN(Cc3ccccc3)CC2)cc1,110 to 111
5,CCc1cc(CCCOc2c(C)cc(C#N)cc2C)on1,50 to 51
6,Cc1ccc(CC2(O)CCNCC2)cc1,118 to 121
7,CC(C)(C)OC(=O)NCCCCCC(=O)OCC1OC(n2cc(C=CBr)c(=O)[nH]c2=O)CC1O (centres undefined),204 to 205
8,COc1ccc(C2=NN(C3CCN(C(C)=O)CC3)C(=O)CC2C)cc1OC (centres undefined),149 to 152
9,Cc1c(-c2ccccc2)c(C2=CCNC2)c2oc(C3CC3)nc2c1C#N,172 to 174
10,CC(C)N(C(C)C)C(C)CN1C(=O)/C(=N/NC(N)=O)c2ccccc21 (centres undefined),201 to 204
11,Clc1ccc2nc(-c3ccsc3)c(I)n2n1,203 to 206
12,C=Cc1cc(C(=O)OC)c(NC(C)=O)cc1C(F)(F)F,79 to 81
13,CCOC(=O)C1=C(C(=O)O)CC(C(=O)O)([N+](=O)[O-])C=C1 (centres undefined),189 to 191
14,CCn1cc(C(=O)O)c(=O)c2cnc(N3CCN(c4ccccc4)CC3)nc21,247 to 248
15,CC(C)Oc1ccc(F)c(N2C(=O)C3=C(CCCC3)C2=O)c1,62.8
16,CCOC(=O)c1cc2c(n1CCN)CCCC2,102 to 104
17,CCC(CC)c1ccc(Cl)c2nc3n(c12)CCCCN3c1ccc(C(F)(F)F)cc1Br,158 to 160
18,c1ccc2c(c1)cnn2-c1nc(NC2CCCCC2)c2ccccc2n1,278 to 281
19,O=C(C=Cc1ccsc1)Nc1nnn[nH]1,273 to 274

row,Structure (SMILES),melting point [°C]
1,CN(C)Cc1cnc2n1-c1ccc(Cl)cc1C(c1ccccc1)=NC2,181 to 182
2,O=c1c2cc(F)ccc2nc(CNCc2ccccc2F)n1-c1ccccc1Cl,140
3,CN1CC=C(c2c[nH]c3ccc(NS(C)(=O)=O)cc23)CC1,210 to 214
4,CCN1CCCC(N2C(=O)c3ccc(N)cc3C2=O)C1 (centres undefined),> 300
5,COC(=O)C(I)C(O)c1ccccc1 (centres undefined),56
6,Cc1nc(N2CCc3ccccc3CC2)c(C#N)c(=O)n1OC(C)C,127 to 128
7,O=C(/C=C/C=C/c1ccccc1)NCCCCC(=O)NO,168 to 170
8,Nc1c(Cl)cc(C(O)CNCCCCCCOCCSCCc2ccccn2)cc1Cl (centres undefined),59.5 to 62
9,N#Cc1ccc(S)c(C#N)c1,180
10,O=[N+]([O-])C=C(NCCSCc1nccs1)NCCSCc1nccs1,50 to 51
11,COc1cc(C(=O)CS(C)(=O)=O)cc(OC)c1N(C)C,111 to 112
12,O=C(O)c1ncn2c1[C@@H]1CCCN1C(=O)c1cc(Cl)ccc1-2,227
13,CCOP(OCC)c1ccccc1P(c1cccc2ccccc12)c1cccc2ccccc12,94 to 95
14,O=Cc1c(O)c(Cl)cc(Cl)c1OCCCCC(=O)O,85 to 87
15,CN1CCN(Cc2ccc(NC(=O)N3CCCc4cc(Oc5ccnc(N)n5)ccc43)cc2C(F)(F)F)CC1,120 to 123
16,Cc1cc(C)cc(C(=O)c2c(C(C)C)c(=O)[nH]c(=O)n2CC2CCCC2)c1,167 to 168
17,CCC(=O)Nc1c(C)c(C)c2c(c1C)C(c1ccc(C(C)C)cc1)CO2 (centres undefined),164 to 165
18,c1ccc(COC2CCN(Cc3c[nH]c4ccccc34)CC2)cc1,143 to 145
19,CC(C)(C)CC(C)(C)c1ccc2c(c1)C(=O)NS2(=O)=O,213 to 215

row,Structure (SMILES),melting point [°C]
1,CCOC(=O)c1ccc(C)nc1,57 to 58
2,COC(=O)c1cc(C)c(C)cc1C(=O)OC,54 to 55
3,CC(=O)OC1CSC(Oc2ccc3nc(C)sc3c2)C(OC(C)=O)C1OC(C)=O (centres undefined),160
4,Cc1csc2ncc(C(O)CCc3ccc(Br)cc3)n12 (centres undefined),175 to 178
5,CNC(=O)c1c(I)c(C#N)c(I)c(C(=O)OCC(O)CO)c1I (centres undefined),117 to 120
6,CSCC(C)(C)NC(=O)c1c(NC(=O)c2cc(C(F)(F)F)nn2-c2ncccc2Cl)c(Cl)cc2cn[nH]c12,100 to 105
7,COC(=O)C1=C(N)C(=O)NCC1,192 to 194
8,COC(=O)[C@H](CC1=CCC(N)(O)C=C1)NC(=O)c1ccccc1 (some centres undefined),170
9,CC(=O)OCC1OC(n2c3ncccc3c3c4c(c5c6cccnc6[nH]c5c32)C(=O)N(C)C4=O)C(OC(C)=O)C(OC(C)=O)C1OC(C)=O (centres undefined),> 300
10,CC(=O)Nc1ccc(CN(C)C2CCOCC2)cc1,105 to 106
11,CC(=O)N[C@@H](CSC(=O)[C@@H](C)c1ccc(CC(C)C)cc1)C(=O)O,123 to 125
12,O=[N+]([O-])c1c(N2CCc3ccccc3CC2)nc2c(c1O)CCCCC2,> 200
13,O=C(O)c1ccc(OCC2CCCCC2)cc1,209 to 210
14,COc1ccccc1N1CCN(CCCn2c(=O)[nH]c3sccc3c2=O)CC1,217 to 218
15,Oc1c(Cl)cc(Cl)cc1CNc1cnsn1,131 to 132
16,CN(C)CC(O)Cn1c2ccccc2c2c3c(c4c5ccccc5n(C)c4c21)C(=O)N(C)C3=O (centres undefined),198 to 203
17,CC(C)(C)OC(=O)c1ccc(Cl)c([N+](=O)[O-])c1,66 to 67
18,CNC(=NCCSCc1cnc(C)[nH]1)NC#N,141 to 142
19,C=CCC(NC(=O)C(CCCCN)NC(=O)Cc1cn(CC=C)c2ccccc12)C(=O)OC (centres undefined),103 to 106
